Reference: US5066644A, “Derivatives of thiazolidine-4-carboxylic acid, its preparation and pharmaceutical compositions containing it” (Poli Industria Chimica S.p.A., priority 1989, dated 1991)
Non-standard residues stand in square brackets, D forms with d. Residues, ends and D or L forms follow the SMILES beside them. ξ: configuration not given here. *: point of attachment. pGlu = O=C1CC[C@@H](C(=O)O)N1; Morpholide = C1CN(*)CCO1; ξThz = O=C(O)C1CSCN1

Assays:
Type in all cases: in vivo
[1] = test system: delayed hypersensitivity by DNCB; experiment: Delayed hypersensitivity induced by DNCB in prednisolone-immunodepressed mice; conditions: 200 mg/kg/die os; for Weight left ear/Weight right ear: 24 hours after challenge; for Increase %: vs. control group
Procedure: Male COBS CD-2 mice weighing about 30 g were sensitized with 25 μl of dinitrochlorobenzene (DNCB) at the concentration of 20 mg/ml in acetone applied on a zone of the abdomen depilated at least 2 hours before.
After 12 hours the animals were challenged with 5 μl of DNCB at the concentration of 10 mg/ml in acetone applied on the external surface of the left auricolar pinna.
In order to carry out this operation the mice were slightly anesthetized with ether. The mice were treated with the compounds under examination from two days before until the day of sensitization and with the compounds and with prednisolone (0.5 mg/kg/die s.c.; 0.5 ml/10 g) from the tenth day after sensitization until the day when challenge occurred.
The animals were killed 24 hours after the challenge; both ears were cut and weighed. The values are expressed as the ratio between the left ear (sensitized) and the right one (unsensitized). […] The increase was higher than that obtained after oral administration of PGT.

peritoneal macrophages = experiment: Superoxide anion production by peritoneal macrophages from prednisolone-immunodepressed mice; conditions: 200 mg/kg/die i.p. + prednisolone 0,5 mg/kg/die/s.c.; macrophages stimulated with phorbol myristate acetate
Source text: Since the production of superoxide anion (O2 ) plays an important role in the microbicidal activity of macrophages (N. P. Cumming, M. J. Pabst, J.Exp.Med., 152, 1649, 1980), the showing of a stimulation of the superoxide anion in the macrophages by drugs provides a very important test for the evaluation of immunostimulating activity. The production of O2 in peritoneal macrophages isolated from prednisolone immunodepressed animals treated with the compounds of the invention was therefore evaluated. The mice were treated subcutaneously for two days with 0.5 mg/kg/day of prednisolone and with the compounds under examination at the dose of 100 mg/kg twice a day, whereas the morning of the animals sacrifice the animals received the compounds only. The macrophages were then isolated by means of a peritoneal washing and cultured in RPMI-1640 added with 10% foetal calf serum, at the concentration of 1×10^6 cells/ml at the temperature of ±37° C. Amounts of 1 ml of cell suspension were incubated for 15' at 37° C. with horse heart cytochrome C and stimulated with phorbol myristate acetate (H. Nielsen, Eur.J.Clin.Pharmacol., 30, 90, 1986). A specrophotometric determination at λ=550 nm of the reduced ferricytochroma using an extinction coefficient E(550)=29.5 mM was then carried out. As it turns out from Table 1, the prednisolone treatment induces an immunosuppression resulting in a lesser production of superoxide anion; the contemporaneous treatment with the compounds of the invention stimulates the 02 production by macrophages up to values close to those of control animals. The compounds have an activity which is from similar to higher than that of PGT at equiponderal doses.

E. coli = experiment: Endoperitoneal E. coli infection in mice; conditions: 200 mg/kg/die os; for N° dead mice/N° treated mice: death-rate recorded 7-8 days after infection
Procedure: The compounds were tested in endoperitoneal infection in mice. Male COBS CD-1 mice weighing 22-25 g were inoculated i.p. with 0.5 ml/mouse of a pathogenic E.coli suspension (in saline solution+0.5% porcine gastric mucine), having a transmittance of about 50%. The mice were treated orally with the compounds twice a day from two days before until the day of the infection, 7 hours before the inoculation.
The death-rate was recorded for about 7-8 days after the infection.

rosette forming cells = experiment: Rosette forming cells (primary response) in prednisolone-immunodepressed mice; conditions: 200 mg/kg/die os; for Rosette forming cells change %: vs. control group
Procedure: The compounds of the invention are also active in the test of the rosette forming cells (primary response; II° type) in prednisolone immunodepressed mice (S. D. Wilson, Immunology, 21, 233, 1971).
Male COBS CD-1 mice weighing about 25 g were treated for 7 days twice a day, with the compounds of the invention and at the second and third day with prednisolone at the dose of 5 mg/kg/s.c. (0.05 ml/10 g).
After 4 days from the start of the treatment the
10 animals were immunized with 5×10^8 sheep red blood cells in 0.2 ml of PBS by intraperitoneal route. The red blood cells were prepared by centrifugating the citrated sheep blood at 1500 rpm for 15 min.; the precipitated red blood cells were washed twice at 1200 rpm for 10 min. in PBS removing the first layer, then suspended again in PBS and counted adjusting at 2.5×10^9 cells/ml.
After 6 days from the immunization the rosette test was carried out by killing the mice and removing the spleen, which was placed in 1 ml of Hank solution in ice-bath and then triturated, homogenated and gauze-filtered. The homogenate was washed twice in Hank, centrifugating at 1200 rpm for 10 min. and then suspended again. The suspension was adjusted to 6×10^7 cells/ml by counting at the Coulter Counter after lysis of the red blood cells. 100 μl of spleen cells suspension (6×10^7 /ml)+100 μl of red blood cells suspension (3×10^8 /ml) were mixed in 0.8 ml of Hank stirring slightly for 1 minute. The samples were incubated for 24 h at+4° C. avoiding any stirring. The samples were then stirred and the number of rosette forming cells/ml was evaluated by means of the Burker apparatus.

[2] = test system: reticulo-endothelial system; experiment: Activity of the reticulo-endothelial system (colloidal charcoal clearance) in cyclophosphamide-immunodepressed mouse; conditions: 100 mg/kg/die i.p.; for Absorbance Δ (0'-20'): means ± SE of 10 mice, absorbance at 640 nm
Procedure: The compounds of the invention are also active in the test of the activity of the reticulo-endothelial system in the mouse immunodepressed by cyclophosphamide (Biozzi G. et al., Brit. J. Path., 34, 441, 1953). COBS CD-1 mice were injected i.v. with colloidal charcoal (0.32 ml of china ink/ml of saline), 10 μl of retroorbital blood were then taken out immediately before and after 1, 10 and 20 min. from the intravenous injection, the blood sample was placed in 3 ml of HCl 0.1 N and the absorbance was evaluated at 640 nm and the change of absorbance was evaluated between the time 0 and 20 min. The animals were treated with cyclophosphamide (100 mg/kg i.p.) from the third to the fifth day of treatment and with the compounds under test for 10 consecutive days; the day after the last treatment the test was carried out.

## NC(=O)C1CSCN1C(=O)[C@@H]1CCC(=O)N1 (stereo partly drawn) [Ia, 3-Pyroglutamyl-thiazolidine-4-carboxamide] ([pGlu]-[ξThz]-NH2)
[1]
  Weight left ear/Weight right ear: 1.688 ± 0.029
  Increase %: 27.68%
Peritoneal macrophages
  nmol cytochrome C reduced/1 × 10^6 macrophages (mean ± S.E.): 9.25 ± 0.48 nmol cytochrome C reduced/1 ×
E. coli
  Protection (%): 40%
  N° dead mice/N° treated mice: 6/10
Rosette forming cells
  Rosette forming cells/spleen cells %: 1.140 ± 0.032%
  Rosette forming cells change %: +34.12%
[2]
  Variation versus the cyclophosphamide treated group %: +15.62%
  Absorbance Δ (0'-20'): 0.370 ± 0.013

## O=C1CC[C@@H](C(=O)N2CSCC2C(=O)N2CCOCC2)N1 (stereo partly drawn) [Ib, N-(3-Pyroglutamyl-thiazolidine-4-carbonyl)morpholine] ([pGlu]-[ξThz]-Morpholide)
[1]
  Weight left ear/Weight right ear: 1.702 ± 0.026
  Increase %: 28.74%
Peritoneal macrophages
  nmol cytochrome C reduced/1 × 10^6 macrophages (mean ± S.E.): 9.62 ± 0.63 nmol cytochrome C reduced/1 ×
E. coli
  Protection (%): 40%
  N° dead mice/N° treated mice: 6/10
Rosette forming cells
  Rosette forming cells/spleen cells %: 1.138 ± 0.038%
  Rosette forming cells change %: +33.88%
[2]
  Variation versus the cyclophosphamide treated group %: +19.37%
  Absorbance Δ (0'-20'): 0.382 ± 0.021

## CCNC(=O)C1CSCN1C(=O)[C@@H]1CCC(=O)N1 (stereo partly drawn) [Ic, N-(3-pyroglutamyl-thiazolidine-4-carbonyl)-ethylamine] ([pGlu]-[ξThz]-NHEt)
[1]
  Weight left ear/Weight right ear: 1.706 ± 0.028
  Increase %: 29.05%
Peritoneal macrophages
  nmol cytochrome C reduced/1 × 10^6 macrophages (mean ± S.E.): 7.83 ± 0.72 nmol cytochrome C reduced/1 ×
E. coli
  Protection (%): 40%
  N° dead mice/N° treated mice: 6/10
Rosette forming cells
  Rosette forming cells/spleen cells %: 1.145 ± 0.032%
  Rosette forming cells change %: +34.71%
[2]
  Variation versus the cyclophosphamide treated group %: +15.94%
  Absorbance Δ (0'-20'): 0.371 ± 0.016

## O=C1CC[C@@H](C(=O)N2CSCC2C(=O)O)N1 (stereo partly drawn) [PGT, 3-pyroglutamyl-thiazolidine-4-carboxylic acid, reference compound] ([pGlu]-[ξThz]-OH)
[1]
  Weight left ear/Weight right ear: 1.579 ± 0.027
  Increase %: 19.44%
Peritoneal macrophages
  nmol cytochrome C reduced/1 × 10^6 macrophages (mean ± S.E.): 8.85 ± 0.75 nmol cytochrome C reduced/1 ×
E. coli
  Protection (%): 20%
  N° dead mice/N° treated mice: 8/10
Rosette forming cells
  Rosette forming cells/spleen cells %: 1.125 ± 0.040%
  Rosette forming cells change %: +32.35%
[2]
  Variation versus the cyclophosphamide treated group %: +14.06%
  Absorbance Δ (0'-20'): 0.365 ± 0.018
